In patent US4224316A, “Synthetic peptides having pituitary growth hormone releasing activity” (Beckman Instruments, Inc., priority 1979, dated 1980):
Square brackets hold non-standard residues; d marks the D form. Peptide text beside a SMILES is read from it.

Test system: pituitaries removed from 20 day old female rats
Test: In vitro growth hormone release study (incubated rat pituitaries, GH radioimmunoassay of the medium)
Assay type: cell-based
Details: mean ± SEM, two pituitaries in 1 ml lactated Ringer's solution, 36° C., peptide added hourly for 2 hours
Protocol: Female rats of the CD-l strain were housed in a constant temperature room at 24° C. with 14 hours light and 10 hours darkness. The rats were fed Purina brand rat chow ab libitum.
All studies were started between 0800 and 1000 hours.
Pituitaries were removed from 20 day old female rats. Two pituitaries were incubated at 36° C. in 1 ml of lactated Ringer's solution in 10 ml polytetrafluoroethylene beakers in a Dubnoff Shaker (90 cycles/min.). The pituitaries were incubated a total of 4 hours (P1, P2, I3, and I4). After two successive one hour preincubation periods (P1, P2), the peptide was added to the incubation medium hourly for 2 hours (I3, I4).
This in vitro study was performed in triplicate and a standard radioimmunoassay of growth hormone present in the incubation medium was performed in duplicate. The hormonal activity was calculated as the difference (Δ) of growth hormone (GH) levels between I3, I4 and P2, i.e., (I3 -P2) and (I4 -P2). P values were calculated by Students' t test using six growth hormone values for each value recorded.
The growth hormone radioimmunoassay reagents were distributed by the National Institute of Arthritis and […] (NIAMDD) program. The growth hormone values were calculated in terms of nanograms (ng) of a rat standard with a growth hormone potency of 0.61 units/mg.

**Q.** Which “In vitro growth hormone release (ΔGH between I3, I4 and P2)” value (10μg peptide) does the source give for CSCC[C@H](NC(=O)[C@H](Cc1ccccc1)NC(=O)[C@@H](Cc1ccccc1)NC(=O)[C@H](Cc1c[nH]c2ccccc12)NC(=O)[C@H](N)Cc1ccccc1)C(N)=O [H2 N-D-Phe-Trp-D-Phe-Phe-Met-CONH2] (H-[dF]W[dF]FM-NH2) here?
**A.** 1469 ± 153 ng.increment.GH/ml incubation

**Q.** And the “In vitro growth hormone release (ΔGH between I3, I4 and P2)” value (100μg peptide)?
**A.** 1483 ± 168 ng.increment.GH/ml incubation

**Q.** Which “In vitro growth hormone release (ΔGH between I3, I4 and P2)” value (1μg peptide) does the source give for NCCCC[C@H](NC(=O)[C@H](Cc1ccccc1)NC(=O)[C@@H](Cc1ccccc1)NC(=O)[C@H](Cc1c[nH]c2ccccc12)NC(=O)[C@H](N)Cc1ccccc1)C(N)=O [H2 N-D-Phe-Trp-D-Phe-Phe-Lys-CONH2] (H-[dF]W[dF]FK-NH2) here?
**A.** -109 ± 101 ng.increment.GH/ml incubation

**Q.** What about the “In vitro growth hormone release (ΔGH between I3, I4 and P2)” value (10μg peptide) of the same molecule?
**A.** 888 ± 120 ng.increment.GH/ml incubation

**Q.** What about the “In vitro growth hormone release (ΔGH between I3, I4 and P2)” value (100μg peptide) of the same molecule?
**A.** 963 ± 96 ng.increment.GH/ml incubation

**Q.** For CSCC[C@H](NC(=O)[C@H](Cc1ccccc1)NC(=O)[C@@H](Cc1c[nH]c2ccccc12)NC(=O)[C@H](Cc1ccccc1)NC(=O)[C@H](N)Cc1ccccc1)C(N)=O [H2 N-D-Phe-Phe-D-Trp-Phe-Met-CONH2] (H-[dF]F[dW]FM-NH2), which “In vitro growth hormone release (ΔGH between I3, I4 and P2)” value (1μg peptide) is on record?
**A.** 130 ± 143 ng.increment.GH/ml incubation

**Q.** What about the “In vitro growth hormone release (ΔGH between I3, I4 and P2)” value (10μg peptide) of the same molecule?
**A.** 955 ± 248 ng.increment.GH/ml incubation

**Q.** And the “In vitro growth hormone release (ΔGH between I3, I4 and P2)” value (100μg peptide)?
**A.** 1060 ± 469 ng.increment.GH/ml incubation
